Results published in article PMC11213733, “Computational approaches identify a transcriptomic fingerprint of drug-induced structural cardiotoxicity” (Cell Biology and Toxicology, 2024).
Where a name gives a salt, the structure may show the parent alone.

Legend:
cardiac microtissues [1] = assay: ATP depletion (CellTiter Glo Luminescent Cell Viability Assay) in cardiac microtissues; type: cell-based, human; settings: the concentration is the IC30 of ATP depletion, or cell death caused
Description: Cellular ATP concentrations were also assessed using the CellTiter Glo® Luminescent Cell Viability Assay as per the manufacturer’s instructions (Promega).

[2] = ref FDA label, cited from earlier work; for Structural cardiotoxin?: FDA label references heart failure or a decrease in left ventricular ejection fraction; for Functional cardiotoxin?: compound annotation
cardiac microtissues [3] = assay: Transcriptomic profiling (mRNA-seq) and DESeq2 differential gene expression analysis in cardiac microtissues; settings: for number of significant differentially expressed genes, 6hr high / number of significant differentially expressed genes, 6hr low / number of significant differentially expressed genes, 48hr high / number of significant differentially expressed genes, 48hr low / number of significant differentially expressed genes, 72hr high / number of significant differentially expressed genes, 72hr low: absolute log2(Fold-Change) > 1, FDR p ≤ 0.05; for number of significant differentially expressed genes, 6hr high / number of significant differentially expressed genes, 48hr high / number of significant differentially expressed genes, 72hr high: high concentration; for number of significant differentially expressed genes, 6hr low / number of significant differentially expressed genes, 48hr low / number of significant differentially expressed genes, 72hr low: low concentration

Structure (SMILES) | Transcriptomic high concentration (µM) = IC30 of ATP depletion (cardiac microtissues [1]) [µM] | Structural cardiotoxin? [2] | Functional cardiotoxin? [2] | number of significant differentially expressed genes, 6hr high (cardiac microtissues [3]) | number of significant differentially expressed genes, 6hr low (cardiac microtissues [3]) | number of significant differentially expressed genes, 48hr high (cardiac microtissues [3]) | number of significant differentially expressed genes, 48hr low (cardiac microtissues [3]) | number of significant differentially expressed genes, 72hr high (cardiac microtissues [3]) | number of significant differentially expressed genes, 72hr low (cardiac microtissues [3]) | impact on gene expression profiles (cardiac microtissues [3]; cardiac microtissues, all treatments)
COc1cccc2c1C(=O)c1c(O)c3c(c(O)c1C2=O)C[C@@](O)(C(=O)CO)C[C@@H]3O[C@H]1C[C@H](N)[C@H](O)[C@H](C)O1 [Doxorubicin HCl] | 0.36 | Y | Y | 17 | 26 | 5 | 5 | 4 | 5 | low impact on gene expression profiles
CS(=O)(=O)CCNCc1ccc(-c2ccc3ncnc(Nc4ccc(OCc5cccc(F)c5)c(Cl)c4)c3c2)o1 [Lapatinib] | 5.53 | Y | Y | 27 | 17 | 13 | 40 | 29 | 18 | 
